Test results from patent publication US9193710B2, “Benzodiazepinones as modulators of metabotropic glutamate receptor functions and neurological uses thereof” (SANFORD-BURNHAM MEDICAL RESEARCH INSTITUTE, priority 2011, dated 2015).
“Also recorded” adds a separate entry of the source. Like-named read-outs stand apart in the source and are kept apart here.

How the values were obtained:
Assay type in all cases: cell-based
[1] = system: human neural stem cells (hNSCs); assay: Neuronal differentiation of human neural stem cells; parameters: key to Inhibition by LY-354740 / Inhibition by DCG-IV: I—Inhibition; conditions: for EC50: Homo sapiens, Neural stem cell; for Inhibition by DCG-IV: inhibition of the compound-induced neurogenesis by the mGluR2/3 agonist DCG-IV; for Inhibition by LY-354740: inhibition of the compound-induced neurogenesis by the group II mGlu agonist LY-354740
Description: FIG. 1 is a dose-response curve showing the effect of Compound 1 (8-bromo-4-(pyridazin-4-yl)-1H-benzo[b][1,4]diazepin-2(3H)-one) and DCG-IV, an mGluR2/3 agonist, alone and in combination on neuronal differentiation of cultured human neural stem cells (hNSCs). When run independently, each compound was tested in a concentration response curve ranging from 0.01 μM to 31.6 μM. Data are presented as the percentage of the neuronal positive control, with basal media values subtracted. […] In combination, the compounds were combined at equal concentrations at each point (for example, the first point in the combined curve consisted of a test of 0.01 μM Compound 1 and 0.01 μM DCG-IV).
Human neural stem cells (hNSCs) were isolated and grown in monolayer culture, plated, treated with varying concentrations of 8-bromo-4-(pyridazin-4-yl)-1H-benzo[b][1,4]diazepin-2(3H)-one (Compound 1), and stained with TUJ-1 antibody, as described in U.S. Patent Application Publication No. US2007/0015138. Mitogen-free test media with a positive control for neuronal differentiation was used along with basal media without growth factors as a negative control. […] The data are presented as a percent of neuronal positive control.
The same protocol used for exemplary Compound 1 (FIG. 1 and Example 55) was used to test these compounds. LY-354740 (eglumegad) is an agonist of the group II mGlu receptors.

[2] = target: T1, mGluR3 (Homo sapiens, UniProt Q14832); assay: Functional assay (FLIPR), mGluR3; conditions: class symbols: IC50 or inhibition at fixed concentration; CHO cells over-expressing mGluR3, calcium signal
T1 construct: expressed in transfected cells; transient Galpha16 co-transfection
T1 sequence (Q14832 23-879): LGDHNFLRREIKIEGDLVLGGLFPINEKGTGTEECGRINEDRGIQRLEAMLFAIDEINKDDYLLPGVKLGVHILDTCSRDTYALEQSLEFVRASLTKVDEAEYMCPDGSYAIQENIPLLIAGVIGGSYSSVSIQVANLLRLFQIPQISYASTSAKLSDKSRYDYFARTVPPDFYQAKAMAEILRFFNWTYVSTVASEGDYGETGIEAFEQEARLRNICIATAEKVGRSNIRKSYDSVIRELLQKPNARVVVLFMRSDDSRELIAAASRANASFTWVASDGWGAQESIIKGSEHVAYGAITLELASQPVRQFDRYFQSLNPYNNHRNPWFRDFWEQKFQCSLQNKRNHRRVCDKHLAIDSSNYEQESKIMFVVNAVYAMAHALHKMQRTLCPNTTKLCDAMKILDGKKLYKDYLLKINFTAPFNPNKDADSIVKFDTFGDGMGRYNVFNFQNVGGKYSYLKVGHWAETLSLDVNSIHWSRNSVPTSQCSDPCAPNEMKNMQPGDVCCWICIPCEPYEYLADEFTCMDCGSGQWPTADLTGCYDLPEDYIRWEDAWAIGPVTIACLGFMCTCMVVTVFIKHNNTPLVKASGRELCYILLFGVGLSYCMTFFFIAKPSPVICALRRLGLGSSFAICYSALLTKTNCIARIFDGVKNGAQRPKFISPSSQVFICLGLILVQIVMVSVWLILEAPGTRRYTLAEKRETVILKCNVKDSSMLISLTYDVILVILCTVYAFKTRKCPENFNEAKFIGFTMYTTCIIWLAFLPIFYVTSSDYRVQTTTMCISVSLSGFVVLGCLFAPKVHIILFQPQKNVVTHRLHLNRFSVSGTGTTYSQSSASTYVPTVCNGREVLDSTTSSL
Description: (§1) The compounds are further characterized through functional assays known in the art for studying potential mGluR agents. As a non-limiting example, the assay may be conducted as follows. Chinese hamster ovary (CHO) cells stably over-expressing either mGluR2 or mGluR3 are seeded into multiwell plates and transiently transfected overnight at 37° C. with a cDNA construct expressing G-protein coupled to intracellular calcium such as Gα16. The following day cells are washed with Hank's balanced salt solution containing calcium and magnesium. Cells are loaded for 1-2 hours with a calcium dye such as Fluo4 at 37° C.
The test compound may be added prior to or concurrent with the loading of the cells with Fluo4. Pre-incubation with compounds can vary from 5 minutes up 2 hours. Pre-incubation is done if the assay is testing for antagonists, positive allosteric modulators or negative allosteric modulators. No pre-incubation is done if the assay is testing for agonist activity. For testing antagonists or negative allosteric modulators an EC80 of the endogenous ligand, glutamate, is used. For testing positive allosteric modulators an EC20 of the endogenous ligand, glutamate, is used. Cells plates are loaded into a real-time fluorescence reader such as the FLIPR Tetra or the Flexstation 3. A base line is recorded for 15 seconds before cells are stimulated with either glutamate or other agonists. The real-time fluorescent signal is recorded for another 2 minutes. The peak of the fluorescent signal is determined. Data are either expressed as percent of the glutamate response in terms of a single determination or concentration curves are fitted with a four parameter logistic equation giving EC50 or IC50 values.

[3] = target: T2, mGluR2 (Homo sapiens, UniProt Q14416); assay: Functional assay (FLIPR), mGluR2; conditions: class symbols: IC50 or inhibition at fixed concentration; CHO cells over-expressing mGluR2, calcium signal
T2 construct: expressed in transfected cells; transient Galpha16 co-transfection
T2 sequence (Q14416 19-872): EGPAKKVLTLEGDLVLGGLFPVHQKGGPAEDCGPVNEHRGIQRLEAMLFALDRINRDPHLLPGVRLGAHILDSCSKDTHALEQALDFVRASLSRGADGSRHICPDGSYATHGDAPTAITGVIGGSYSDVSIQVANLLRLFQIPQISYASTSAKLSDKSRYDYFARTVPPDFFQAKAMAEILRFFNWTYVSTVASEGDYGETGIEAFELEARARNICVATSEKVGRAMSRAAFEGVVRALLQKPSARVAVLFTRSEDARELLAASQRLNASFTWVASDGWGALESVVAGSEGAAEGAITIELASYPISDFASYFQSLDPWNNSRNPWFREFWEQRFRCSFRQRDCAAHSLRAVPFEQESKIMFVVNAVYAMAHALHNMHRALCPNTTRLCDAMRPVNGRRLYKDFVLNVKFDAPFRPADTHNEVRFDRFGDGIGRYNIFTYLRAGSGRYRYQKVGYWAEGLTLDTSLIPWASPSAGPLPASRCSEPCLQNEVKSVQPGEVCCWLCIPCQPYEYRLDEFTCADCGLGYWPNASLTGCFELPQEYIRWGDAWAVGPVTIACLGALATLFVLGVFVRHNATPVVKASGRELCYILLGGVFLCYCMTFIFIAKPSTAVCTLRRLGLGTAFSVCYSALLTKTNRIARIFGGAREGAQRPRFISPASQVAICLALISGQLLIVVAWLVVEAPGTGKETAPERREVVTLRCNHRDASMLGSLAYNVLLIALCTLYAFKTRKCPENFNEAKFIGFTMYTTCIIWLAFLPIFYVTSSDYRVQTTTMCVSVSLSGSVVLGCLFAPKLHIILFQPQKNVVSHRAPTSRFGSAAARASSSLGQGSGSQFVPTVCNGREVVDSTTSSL
Description: as §1
The test compound may be added prior to or concurrent with the loading of the cells with Fluo4. Pre-incubation with compounds can vary from 5 minutes up 2 hours. […] Cells plates are loaded into a real-time fluorescence reader such as the FLIPR Tetra or the Flexstation 3. A base line is recorded for 15 seconds before cells are stimulated with either glutamate or other agonists. The real-time fluorescent signal is recorded for another 2 minutes. The peak of the fluorescent signal is determined. Data are either expressed as percent of the glutamate response in terms of a single determination or concentration curves are fitted with a four parameter logistic equation giving EC50 or IC50 values.

[4] = neuronal differentiation of hNSCs, TUJ-1 staining, read-out: Neurogenesis EC50

| EC50 [1, 4] | Structure (SMILES) | further results |
| --- | --- | --- |
| 1 to 5 µM | O=C1CC(c2ccnnc2)=Nc2ccc(Br)cc2N1 [Compound 1, 8-bromo-4-(pyridazin-4-yl)-1H-benzo[b][1,4]diazepin-2(3H)-one] | effect on neuronal differentiation (neurogenesis), tested alone ([1]; FIG. 1, 0.01 μM to 31.6 μM): promoted neuronal differentiation in a concentration dependent manner; neurogenesis in combination with DCG-IV ([1]; FIG. 1, Compound 1 and DCG-IV at equal concentrations (1:1 ratio) at each point): no noted neurogenesis; also recorded: did not induce neurogenesis; EC50 ([1]; FIG. 1, 0.01 μM to 31.6 μM, percentage of neuronal positive control, basal media subtracted, read-out: EC50, neuronal differentiation dose-response curve): 2.53 µM; Inhibition by DCG-IV [1]: I |
| 1 to 5 µM | O=C1CC(c2ccnnc2)=Nc2ccc(C(F)(F)F)cc2N1 [Compound 2, 8-trifluoromethyl-4-(pyridazin-4-yl)-1H-benzo[b][1,4]diazepin-2(3H)-one] | Inhibition by LY-354740 [1]: I |
| 1 to 5 µM | O=C1CC(c2ccnnc2)=Nc2ccc(I)cc2N1 [Compound 3, 8-iodo-4-(pyridazin-4-yl)-1H-benzo[b][1,4]diazepin-2(3H)-one] | Inhibition by LY-354740 [1]: I |
| 1 to 5 µM | COC(=O)c1ccc2c(c1)NC(=O)CC(c1ccnnc1)=N2 [Compound 4, Methyl 2-oxo-4-(pyridazin-4-yl)-2,3-dihydro-1H-benzo[b][1,4]diazepine-8-carboxylate] | – |
| < 1 µM | O=C1CC(c2ccnnc2)=Nc2ccc(Cl)cc2N1 [Compound 5, 8-chloro-4-(pyridazin-4-yl)-1H-benzo[b][1,4]diazepin-2(3H)-one] | – |
| 1 to 5 µM | O=C1CC(c2ccnnc2)=Nc2ccc(F)cc2N1 [Compound 6, 8-fluoro-4-(pyridazin-4-yl)-1H-benzo[b][1,4]diazepin-2(3H)-one] | – |
| > 5 µM | O=C1CC(c2cncnc2)=Nc2ccc(Br)cc2N1 [Compound 7, 8-Bromo-4-(pyrimidin-3-yl)-1H-benzo[b][1,4]diazepin-2(3H)-one] | – |
| > 5 µM | O=C1CC(c2cnccn2)=Nc2ccc(Br)cc2N1 [Compound 8, 8-Bromo-4-(pyrazin-2-yl)-1H-benzo[b][1,4]diazepin-2(3H)-one] | – |
| 1 to 5 µM | Cc1ccc(C2=Nc3ccc(Br)cc3NC(=O)C2)nn1 [Compound 9] | – |
| 1 to 5 µM | O=C1CC(c2ccc(Cl)nn2)=Nc2ccc(Br)cc2N1 [Compound 10] | – |
| < 1 µM | O=C1CC(c2ccnnc2)=Nc2ccc(C(=O)O)cc2N1 [Compound 12, 2-oxo-4-(pyridazin-4-yl)-2,3-dihydro-1H-benzo[b][1,4]diazepine-8-carboxylic acid] | Inhibition by LY-354740 [1]: I |
| > 5 µM | Cc1cc2c(cc1C)NC(=O)CC(c1ccnnc1)=N2 [Compound 13, 7,8-Dimethyl-4-(pyridazin-4-yl)-1H-benzo[b][1,4]diazepin-2(3H)-one] | – |
| 1 to 5 µM | O=C1CC(c2ccnnc2)=Nc2ccc(-c3cccs3)cc2N1 [Compound 15, 8-(Thiophen-2-yl)-4-(pyridazin-4-yl)-1H-benzo[b][1,4]diazepin-2(3H)-one] | Inhibition by LY-354740 [1]: I; Inhibition by DCG-IV [1]: I |
| > 5 µM | O=C1CC(c2ccnnc2)=Nc2ccc(-c3ccccc3F)cc2N1 [Compound 16, 8-(2-Fluorophenyl)-4-(pyridazin-4-yl)-1H-benzo[b][1,4]diazepin-2(3H)-one] | – |
| > 5 µM | COc1ccc(-c2ccc3c(c2)NC(=O)CC(c2ccnnc2)=N3)cc1OC [Compound 17, 8-(3,4-Dimethoxyphenyl)-4-(pyridazin-4-yl)-1H-benzo[b][1,4]diazepin-2(3H)-one] | – |
| – | O=C1CC(c2ccc(O)nn2)=Nc2ccc(Br)cc2N1 [Compound 33, 8-Bromo-4-(6-hydroxypyridazin-3-yl)-1H-benzo[b][1,4]diazepin-2(3H)-one] | mGluR3 FLIPR [2]: B (B=inhibition at 101.1M>50%) |
| – | O=C1CC(c2ccc3[nH]c(=O)sc3c2)=Nc2ccc(Br)cc2N1 [Compound 35, 6-(8-bromo-2-oxo-2,3-dihydro-1H-benzo[b][1,4]diazepin-4-yl)benzo[d]thiazol-2(3H)-one] | mGluR3 FLIPR [2]: C (C=inhibition at 101.1M<50%) |
| – | O=C1CC(c2ccc3[nH]c(=O)sc3c2)=Nc2ccc(C#Cc3ccccc3F)cc2N1 [Compound 36, 6-(8-((2-fluorophenyl)ethynyl)-2-oxo-2,3-dihydro-1H-benzo[b][1,4]diazepin-4-yl)benzo[d]thiazol-2(3H)-one] | mGluR3 FLIPR [2]: C (C=inhibition at 101.1M<50%) |
| – | O=C1CC(c2cccc(Br)c2)=Nc2ccc(NC(=O)OCc3ccccc3)cc2N1 [Compound 82, benzyl(4-(3-bromophenyl)-2-oxo-2,3-dihydro-1H-benzo[b][1,4]diazepin-8-yl)carbamate] | mGluR2 FLIPR [3]: A (A=IC50<1 μM) |
| – | N[C@H](C(=O)O)C1[C@@H](C(=O)O)[C@@H]1C(=O)O (some centres unmarked) [DCG-IV, reference compound] | effect on neuronal differentiation (neurogenesis), tested alone ([1]; FIG. 1, 0.01 μM to 31.6 μM): no effect; also recorded: did not induce neurogenesis |
